Experimental data as given in patent US20170095467A1, “ENCAPSULATION OF ISOQUINOLINE ALKALOIDS” (Rhizofeed, LLC, priority 2015, published 2017).

Legend:
[1] = system: rats; settings: rat, in vivo; cited from earlier work
[2] = Photosensitivity of sanguinarine and chelerythrine in crude rhizome extract under short-wave UV light (HPLC); format: physicochemical
Description: 2 mL of each sample was then collected. All dilutions were filtered through 0.22 um syringe filter (Restek) and were stored in a dark environment held at −4° C. Mobile phases were prepared using 40% acetonitrile, 59% distilled water, and 1% acetic acid. The flow rate was 1.0000 mL/minute, and a pressure of approximately 2161.06 psi was maintained. UV visible spectroscopy was used to determine the optimum wavelength of detection, and detection was carried out at 330 nm. Preliminary studies determined that isoquinoline alkaloids are […] under UV light. In a purified state, it has been established that Sanguinarine undergoes photochemical conversion to oxysanguinarine. […] As depicted in Table 7 and FIG. 5, exposure to light or UV radiation over any period of time has a detrimental effect on the encapsulation yield. According to certain embodiments, exposure to light and UV radiation can be minimized by storing the alkaloids in dark conditions until the encapsulation process is complete or the finished product is used.

[3] = Heat degradation of alkaloids in crude extract / extraction with heat; format: physicochemical
Description: Two preliminary studies involving heat were conducted. In one study, the raw bloodroot powder was placed on a heating element for 24 hours while the alkaloid was extracted. […] In a second study, a crude extract of alkaloids was placed on a heating element at 67° C. to test for degradation.

[4] = Encapsulate degradation by UV light; format: physicochemical
Description: (§1) The optimized encapsulation method disclosed herein was employed to produce alkaloid loaded inulin beads. These beads were subjected to both heat and light to determine the protective properties conferred by the microencapsulation process.
To determine the light protection provided by the microencapsulation process, 1 g of inulin beads was exposed to a UV source (115V Arthur H. Thomas Co. Lamp).

[5] = Encapsulate degradation by heat (oven / pelletization-like conditions); format: physicochemical; settings: 24 h
Description: as §1
To determine the protection the microencapsulation process provides against heat, 1 g of inulin beads was placed in a Fischer Scientific model 605G Isotemp Oven for 24 hours at 96° C. A comparative example of sanguinarine standard that was not encapsulated was also placed in the oven.
A second study was also performed to understand the effect pelletization could have on the microcapsules. In the second study, 1 g of inulin beads was placed in a loosely covered beaker and subjected to 121° C. heat and 16 psi conditions for 20 minutes. These values are much higher in magnitude and duration than will be endured in the pelletization process for animal feed. As depicted in Table 10, the microcapsules decreased degradation by a factor of 1.62.

[6] = Crude Extract Exposed to UV Light (24 Hours)
[7] = Crude Extract Exposed to UV Light (48 Hours)
[8] = Crude Extract Exposed to UV Light (72 Hours)
[9] = Crude Extract Exposed to UV Light (144 Hours)
[10] = Standard Extraction (No Heat or Light Exposure)
[11] = Crude Extract Exposed to Heat (24 Hours)

| Compound | LD50 [1] [mg/kg] | Percentage of alkaloid in Extract [2, 6] [%] | Percentage of alkaloid in Extract [2, 7] [%] | Percentage of alkaloid in Extract [2, 8] [%] | Percentage of alkaloid in Extract [2, 9] [%] | Percentage of alkaloid in Extract [2, 10] [%] | Percentage of alkaloid in Extract [3, 11] [%] | Percentage of alkaloid in Extract ([3]; Extracted with Heat (24 Hours)) [%] | Percentage of alkaloid in Extract [3, 10] [%] | Percent Degradation [4] [%] | Post-Exposure Alkaloid conc. [4] [mg/mL] | Pre-exposure Alkaloid conc. [4] [mg/mL] | Percent Degradation ([5]; 96° C.) [%] | Post-Exposure Alkaloid concentration ([5]; 96° C.) [mg/mL] | Pre-exposure Alkaloid concentration ([5]; 96° C.) [mg/mL] | Percent Degradation ([5]; 121° C., 16 psi, Sang. Only) [%] | Post-Exposure Alkaloid concentration ([5]; 121° C., 16 psi, Sang. Only) | Pre-exposure Alkaloid concentration ([5]; 121° C., 16 psi, Sang. Only) |
| --- | --- | --- | --- | --- | --- | --- | --- | --- | --- | --- | --- | --- | --- | --- | --- | --- | --- | --- |
| C[n+]1cc2c3c(ccc2c2ccc4cc5c(cc4c21)OCO5)OCO3 [Sanguinarine, sanguinarine] | 1658 | 2.61 | 2.41 | 2.35 | 1.26 | 5.21 | 4.28 | 3.41 | 5.21 |  |  |  |  |  |  |  |  |  |
| COc1ccc2c(c[n+](C)c3c4cc5c(cc4ccc23)OCO5)c1OC [Chelerythrine, chelerythrine] |  | 1.50 | 1.46 | 1.45 | 1.30 | 2.95 | 1.81 | 2.43 | 2.95 |  |  |  |  |  |  |  |  |  |
| C[n+]1cc2c3c(ccc2c2ccc4cc5c(cc4c21)OCO5)OCO3 [Standard, sanguinarine chloride] |  |  |  |  |  |  |  |  |  | 49.80 | 0.154 | 0.307 | 25.40 | 0.229 | 0.307 | 63.30 | .07306 (Sang mg/mL | .2002 (Sang. mg/mL |
